Among the data in US20020004072A1, “"COMPOSITION PROVIDING A SUSTAINED RELEASE OF L-HISTIDINE AND METHODS OF MANUFACTURE THEREOF"” (priority 1999, published 2002) are Bulk Density and Tapped Density values, retold here.

The nature of this data set: Bulk and tapped density measurement by standard pharmaceutical methods. The format is physicochemical. The procedure:
Density measurements were carried out using standard pharmaceutical methods for the measurement of bulk and tapped density. A comparison of the apparent density of the freshly dispensed or bulk powder to that of powder after settling is shown in Table 4.

For the setting “freshly dispensed or bulk powder”, `N[C@@H](Cc1c[nH]cn1)C(=O)O` [L-Histidine] returned a Bulk Density of 0.55 g/mL. This molecule came in with a Tapped Density (powder after settling) of 0.79 g/mL.
